For one series, the system named is allergy and ulcer. Description: antiallergy and antiulcer activity, general statement. The note with it: in vivo. As for the experimental part:
(§1) The antiallergy property of the compounds of this invention is evaluated by the passive cutaneous anaphylaxis (PCA) test (Ovary, J. Immun., 81, 355, 1958). In the PCA test, normal animals are injected intradermally (i.d.) with antibodies contained in serum obtained from actively sensitized animals. The animals are then challenged intravenously with antigen mixed with a dye such as Evans' Blue. The increased capillary permeability caused by the antigen-antibody reaction causes the dye to leak from the site of the antibody injection. The test animals are then asphyxiated and the intensity of the reaction determined by measuring the diameter and intensity of the blue coloration on the inner surface of the animals' skin.
The antiulcer activity of the compounds of the present invention is evaluated by the so-called cold-restraint stressed rat assay. Alternatively, the antiulcer activity is determined in a newly established ethanol-induced rat ulcer assay described below.

Series [1] can be described thus: plasma concentration / oral absorption in rats. The format is in vivo, rat. The following applies: rat; oral dosing of III. Here is the method: (§2) This is supported by the observations of plasma concentrations of 3 to 7 μg/ml one hour after oral administration of III, 50 to 300 mg/kg.
A short description of series [2]: plasma concentration / oral absorption in dogs. The format is in vivo, dog. The following applies: dog; oral dosing of III. Here is the method:
as §2

The next series concerns IgE. Description: passive cutaneous anaphylaxis (PCA) test, oral, IgE (reaginic antiserum) site. The format is in vivo, rat. The note with it: Table I; for inhibition in vivo at 30 mg/kg: Rattus norvegicus, read-out: Oral Activity (% of Protection) of Amides in the PCA Test, IgE 30 mg./kg. As for the experimental part: as §1
(§3) The PCA test is a measure of the anti-allergic (especially anti-asthmatic) activity of a compound. Compounds which inhibit a positive PCA test induced by the rat immunochemical counterpart of human immunoglobulin E (IgE), or reagin, are considered to have anti-allergic activity (C. Mota, Ann. N.Y. Acad. Sci., 103, 264 1963). (Reagin is primarily immunoglobulin E [IgE] and is the principal immunoglobulin responsible for allergic asthma, anaphylaxis, hay fever, food sensitivities and certain manifestations of drug sensitivities, although recent evidence ascribes to the IgG class of antibodies a significant role in the mediation of allergic diseases). Such compounds when administered to a sensitized subject, human or animal, prior to the time when the subject comes into contact with antigens or substances to which it is allergic, will prevent the allergic reaction which would otherwise occur. They, therefore, provide a method for the prophylactic treatment of allergy or anaphylactic reactions of a reagin mediated nature.
(§4) To put it another way, such compounds block the release of mediators resulting from the antigen-antibody (allergic) reaction as illustrated in the PCA test using rat homocytotropic antibody--a known correlate of human reaginic antibody. Inhibition of reaginic antigen-antibody reactions in rats, the test animal of the PCA test, is regarded as representative of inhibition of human reaginic antigen-antibody reactions which occur during allergic episodes.
(§5) The ability of agents to interfere with PCA reactions is measured in male Charles River Wistar rats, 170-210 g. Reaginic antiserum, rich in IgE antibodies, is prepared according to Petillo et al., Int. Arch. Allergy, 44, 309 (1973). Hyperimmune antiserum rich in IgG antibodies to hen egg albumin is prepared according to Orange et al., J. Exptl. Med., 127, 767 (1968). Forty-eight hours prior to antigen challenge, the reaginic antiserum is injected intradermally (i.d.) into the shaved skin of a normal rat's back; 5 hours before challenge the hyperimmune antisera is similarly injected. At a third site 60 mcg. histamine dihydrochloride and 0.5 mcg. serotonin creatinine sulfate are injected i.d. just prior to antigen challenge as a check for antihistaminic, antiserotonin and unspecific types of blockage; the compounds of the instant invention or saline are then administered i.v. and immediately followed by the challenge of 5 mg. egg albumen and 2.5 mg. Evans' Blue dye in saline. In the case of oral administration Evans' Blue dye and egg albumin are given 5 minutes after administration of the drug. Thirty minutes later the animals are asphyxiated using chloroform and the skin of the back removed and reversed for observation. A score is assigned each injection site equal to the product of the diameter of the site in mm. and a grade of 0.1, 0.5, 1, 2, 3 or 4 proportional to intensity of dye coloration. The scores for a given injection site are summed for each group of five animals and compared to the saline treated controls. The difference is expressed as percent blockage due to the compound employed. […]

The next series has as its system IgG. Description: passive cutaneous anaphylaxis (PCA) test, oral, IgG (hyperimmune antiserum) site. The following applies: Table I; for inhibition in vivo at 30 mg/kg: Rattus norvegicus, read-out: Oral Activity (% of Protection) of Amides in the PCA Test, IgG 30 mg./kg. It is filed as in vivo, rat. As for the experimental part: as §1, §3, §4, §5
The test system of a further series is mediators of anaphylaxis. The following applies: cited from earlier work.
The subject of series [3] is dextran induced release of histamine. Description: dextran induced release of histamine into the rat peritoneal cavity. The format is in vivo. The following applies: ip. From the text: Compound III inhibits dextran induced release of histamine into the rat peritoneal cavity.
Another series relates to gastric ulcers. The following applies: animals, including humans; cited from earlier work.
A short description of series [4]: water solubility and hygroscopicity of the sodium salt. It is filed as physicochemical. The note with it: sodium salt (trihydrate).

Structures are written as SMILES. Entries after “also recorded” stand apart in the source; their conditions may differ. Where a name gives a salt, the structure may show the parent alone.

With `O=C(O)c1cnc2sc3c(n2c1=O)CCCC3` [Acid II, R1R2 = (CH2)4, 1-oxo-1H-cyclohexenothiazolo[3,2-a]pyrimidine-2-carboxylic acid], the “activity of metabolite, in words” value in the series with allergy and ulcer is on record as “good activity”. In addition, the “plasma levels of the carboxylic acid metabolite compared with III, rat” value in [1] is “comparable to those of III”. Also, the “plasma levels of the carboxylic acid metabolite compared with III, dog” value in series [2] is “comparable to those of III”.

For `CCc1sc2ncc(C(=O)Nc3nnn[nH]3)c(=O)n2c1CC` [Amide I, R1 = C2 H5, R2 = C2 H5, N-(5-tetrazolyl)-1-oxo-1H-6,7-diethylthiazolo[3,2-a]pyrimidine-2-carboxamide], the “Oral Activity (% of Protection) of Amides in the PCA Test, IgE 10 mg./kg.” value (from here on “Oral Activity (% of Protection) … IgE 10 mg./kg.”) with IgE is listed as 62%. In the series on IgG, the “Oral Activity (% of Protection) of Amides in the PCA Test, IgG 10 mg./kg.” value (shortened to “Oral Activity (% of Protection) … IgG 10 mg./kg.”) is 49%.

Regarding `CCc1c(C)sc2ncc(C(=O)Nc3nnn[nH]3)c(=O)n12` [Amide I, R1 = CH3, R2 = C2 H5, N-(5-tetrazolyl)-1-oxo-1H-6-methyl-7-ethylthiazolo[3,2-a]pyrimidine-2-carboxamide], the “Oral Activity (% of Protection) … IgE 10 mg./kg.” value with IgE worked out at 75%. Also, the “Oral Activity (% of Protection) … IgG 10 mg./kg.” value in the series on IgG is 57%.

For the compound `CCc1csc2ncc(C(=O)Nc3nnn[nH]3)c(=O)n12` [Amide I, R1 = H, R2 = C2 H5, N-(5-tetrazolyl)-1-oxo-1H-7-ethylthiazolo[3,2-a]pyrimidine-2-carboxamide], the “Oral Activity (% of Protection) … IgE 10 mg./kg.” value in the series on IgE came out at 70%. The “Oral Activity (% of Protection) … IgG 10 mg./kg.” value in the series on IgG was 44%.

Turning to `CC(C)(C)c1csc2ncc(C(=O)Nc3nnn[nH]3)c(=O)n12` [Amide I, R1 = H, R2 = C(CH3)3, N-(5-tetrazolyl)-1-oxo-1H-7-(2-methyl-2-propyl)thiazolo[3,2-a]pyrimidine-2-carboxamide], the “Oral Activity (% of Protection) … IgE 10 mg./kg.” value with IgE stood at 37%. Further, the “Oral Activity (% of Protection) … IgG 10 mg./kg.” value in the series on IgG was 20%.

Regarding `CC(C)c1csc2ncc(C(=O)Nc3nnn[nH]3)c(=O)n12` [Amide I, R1 = H, R2 = CH(CH3)2, N-(5-tetrazolyl)-1-oxo-1H-7-isopropylthiazolo[3,2-a]pyrimidine-2-carboxamide], the “Oral Activity (% of Protection) … IgE 10 mg./kg.” value in the series with IgE came out at 72%. Further, the “Oral Activity (% of Protection) … IgG 10 mg./kg.” value with IgG stood at 53%.

Regarding `O=C(Nc1nnn[nH]1)c1cnc2sc3c(n2c1=O)CCC3` [Amide I, R1R2 = (CH2)3, N-(5-tetrazolyl)-1-oxo-1H-cyclopentenothiazolo[3,2-a]pyrimidine-2-carboxamide], the “Oral Activity (% of Protection) of Amides in the PCA Test, IgE 3 mg./kg.” value in the series with IgE (3 mg./kg.) came out at 46%. Also, the “Oral Activity (% of Protection) of Amides in the PCA Test, IgG 3 mg./kg.” value with IgG (3 mg./kg.) was 43%.

For `O=C(Nc1nnn[nH]1)c1cnc2sc3c(n2c1=O)CCCCC3` [Amide I, R1R2 = (CH2)5, N-(5-tetrazolyl)-1-oxo-1H-cycloheptenothiazolo[3,2-a]pyrimidine-2-carboxamide], in the series on IgE, the “Oral Activity (% of Protection) … IgE 10 mg./kg.” value is 25%. For the same compound, the “Oral Activity (% of Protection) … IgG 10 mg./kg.” value in the series on IgG is 38%.

Take `O=C(Nc1nnn[nH]1)c1cnc2sc3c(n2c1=O)CCCCCC3` [Amide I, R1R2 = (CH2)6, N-(5-Tetrazolyl)-1-oxo-1H-cyclooctenothiazolo[3,2-a]pyrimidine-2-carboxamide]: in the series with IgE, the “Oral Activity (% of Protection) … IgE 10 mg./kg.” value is 94%. The “Oral Activity (% of Protection) … IgG 10 mg./kg.” value in the series on IgG came to 57%.

For the compound `CC1(C)CCc2c(sc3ncc(C(=O)Nc4nnn[nH]4)c(=O)n23)C1` [Amide I, R1R2 = CH2 C(CH3)2 CH2 CH2, N-(5-Tetrazolyl)-1-oxo-1H-7,7-dimethylcyclohexenothiazolo[3,2-a]pyrimidine-2-carboxamide], the inhibition in vivo at 30 mg/kg was 38% in the series on IgE and 27% with IgG.

For the compound `O=C(Nc1nnn[nH]1)c1cnc2sc3c(n2c1=O)CCC(c1ccccc1)C3` (centres unmarked) [Amide I, R1R2 = CH2 CH(C5 H6)CH2 CH2, N-(5-tetrazolyl)-1-oxo-1H-7-phenylcyclohexenothiazolo[3,2-a]pyrimidine-2-carboxamide], the results for the inhibition in vivo at 30 mg/kg in the series with IgE and in the series with IgG were 4% and 7%, respectively.

In the case of `CC1CCc2c(sc3ncc(C(=O)Nc4nnn[nH]4)c(=O)n23)C1` (centres unmarked) [Amide I, R1R2 = CH2 CH(CH3)CH2 CH2, N-(5-tetrazolyl)-1-oxo-1H-7-methylcyclohexenothiazolo[3,2-a]pyrimidine-2-carboxamide], the figures for the inhibition in vivo at 30 mg/kg with IgE and in the series with IgG were 44% and 33%, respectively.

By ED50 is commonly meant the dose that gives a 50% effect, or the effect in half of the subjects. Low values mean an effect at a small dose, high ones a need for a large dose. For `O=C(O)c1cc(=O)c2c(OCC(O)COc3cccc4oc(C(=O)O)cc(=O)c34)cccc2o1` [Intal, 1,3-bis(2-carboxycromon-5-yloxy)-2-hydroxy-propane], in the series on mediators of anaphylaxis (in vivo), the bronchodilator activity entry was “not a bronchodilator” and the “release of mediators of anaphylaxis” value is listed as “inhibition of release of mediators of anaphylaxis”. Further, the “oral activity/efficacy of Intal” value with mediators of anaphylaxis (oral route) is on record as “lacks efficacy by the oral route; also recorded: not active by the oral route; also recorded: lack of oral efficacy”. This compound also registered a median effective dose (ED50) in [3] of 0.014 mg/kg.

For the compound `CCC(C)c1csc2ncc(C(=O)Nc3nnn[nH]3)c(=O)n12` (centres unmarked) [N-(5-Tetrazolyl)-1-oxo-1H-7-(2-butyl)thiazolo[3,2-a]pyrimidine-2-carboxamide], the inhibition in vivo at 30 mg/kg in the series with IgE and in the series on IgG was 6% each time.

On to `CC1(C)[C@@H](OC(=O)CCC(=O)O)CC[C@]2(C)[C@H]3C(=O)C=C4[C@@H]5C[C@@](C)(C(=O)O)CC[C@]5(C)CC[C@@]4(C)[C@]3(C)CC[C@@H]12` [carbenoxolone sodium, disodium salt of the hemisuccinate of glycyrrhetinic acid], for which, in the series with gastric ulcers, the “effect on gastric ulcers” value was “prevent formation of and to accelerate healing of gastric ulcers”.

Regarding `CN/C(=N/CCSCc1nc[nH]c1C)NC#N` [cimetidine], the “effect on gastric ulcers” value in the series on gastric ulcers is reported as “alleviates ulcers by reducing gastric acid secretion”.

Take `O=C(Nc1nnn[nH]1)c1cnc2sc3c(n2c1=O)CCCC3` [sodium salt (trihydrate), sodium N-(5-tetrazolyl)-1-oxo-1H-cyclohexenothiazolo[3,2-a]pyrimidine-2-carboxamide trihydrate]: in series [4], the hygroscopicity result is on record as “non-hygroscopic” and the water solubility entry is listed as “good water solubility”.
